For five cell lines, relative viability results are on record in the supplement of paper PMC10307832.

Common to all, as to experiment: relative viability (nuclei count vs DMSO), 5 days (fraction); higher = more cells survive
Compound in the assay “Selisistat + Pictilisib”: C1CC(C2=C(C1)C3=C(N2)C=CC(=C3)Cl)C(=O)N [Selisistat] + CS(=O)(=O)N1CCN(Cc2cc3nc(-c4cccc5[nH]ncc45)nc(N4CCOCC4)c3s2)CC1 [Pictilisib] (partner 1 µM)
In short, it runs like this: (§1)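 Dosing by pin tool came one day after lung cancer cell lines were seeded in 1536-well plates, using either one drug or a fixed anchor-drug dose plus five library-drug doses (not always all listed) in √10 steps. After 5 days, nuclei were counted on 4× images. Relative viability is treated-well nuclei count divided by vehicle-well nuclei count, and values are medians of duplicate plates.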

Compound in the assay “Selisistat + Foretinib”: C1CC(C2=C(C1)C3=C(N2)C=CC(=C3)Cl)C(=O)N [Selisistat] + COc1cc2c(Oc3ccc(NC(=O)C4(C(=O)Nc5ccc(F)cc5)CC4)cc3F)ccnc2cc1OCCCN1CCOCC1 [Foretinib] (partner 0.25 µM)
In short, it runs like this: as §1

Compound in the assay “Serdemetan + Tozasertib”: c1ccc2c(CCNc3ccc(Nc4ccncc4)cc3)c[nH]c2c1 [Serdemetan] + Cc1cc(Nc2cc(N3CCN(C)CC3)nc(Sc3ccc(NC(=O)C4CC4)cc3)n2)n[nH]1 [Tozasertib] (partner 0.1 µM)
In a few lines:
as §1

Compound in the assay “Serdemetan + Olaparib”: c1ccc2c(CCNc3ccc(Nc4ccncc4)cc3)c[nH]c2c1 [Serdemetan] + O=C(c1cc(Cc2n[nH]c(=O)c3ccccc23)ccc1F)N1CCN(C(=O)C2CC2)CC1 [Olaparib] (partner 8 µM)
In a few lines:
as §1

With LCLC-97TM1, the relative viability was found to be 0.148 with Selisistat + Pictilisib (first compound 0.4 µM); 0.191 in the assay with Selisistat + Pictilisib (first compound 1.265 µM); 0.134 with Selisistat + Pictilisib (first compound 4 µM); 0.185 in the assay with Selisistat + Pictilisib (first compound 12.65 µM); 0.218 with Selisistat + Pictilisib (first compound 40 µM); 0.861 with Selisistat + Foretinib (first compound 0.4 µM). Also, the relative viability with Selisistat + Foretinib (first compound 1.265 µM) turned out to be 0.849; in the assay with Selisistat + Foretinib (first compound 12.65 µM), 0.907; in the assay with Selisistat + Foretinib (first compound 40 µM) it was 0.862; with Serdemetan + Tozasertib (first compound 0.04 µM), 0.256; with Serdemetan + Tozasertib (first compound 0.1265 µM), 0.202; with Serdemetan + Tozasertib (first compound 0.4 µM) it was 0.235. Further, the relative viability with Serdemetan + Tozasertib (first compound 4 µM) amounted to 0.169; with Serdemetan + Olaparib (first compound 0.04 µM), 0.349; with Serdemetan + Olaparib (first compound 0.1265 µM), 0.358; with Serdemetan + Olaparib (first compound 0.4 µM), 0.403; in the assay with Serdemetan + Olaparib (first compound 1.265 µM), 0.174; with Serdemetan + Olaparib (first compound 4 µM), 0.237.

As to EPLC-272H, the relative viability was 0.261 in the assay with Selisistat + Pictilisib (first compound 0.4 µM); 0.337 with Selisistat + Pictilisib (first compound 1.265 µM); 0.287 with Selisistat + Pictilisib (first compound 12.65 µM); 0.332 with Selisistat + Pictilisib (first compound 40 µM); 0.849 with Selisistat + Foretinib (first compound 0.4 µM); 0.662 with Selisistat + Foretinib (first compound 1.265 µM). The relative viability with Selisistat + Foretinib (first compound 12.65 µM) worked out at 0.566; with Selisistat + Foretinib (first compound 40 µM), 0.631; with Serdemetan + Tozasertib (first compound 0.04 µM), 0.269; in the assay with Serdemetan + Tozasertib (first compound 0.1265 µM), 0.309; in the assay with Serdemetan + Tozasertib (first compound 0.4 µM), 0.306; in the assay with Serdemetan + Tozasertib (first compound 1.265 µM), 0.169. For the same cell line, the relative viability with Serdemetan + Tozasertib (first compound 4 µM) is 0.249; with Serdemetan + Olaparib (first compound 0.04 µM), 0.837; with Serdemetan + Olaparib (first compound 0.1265 µM) it was 0.883; in the assay with Serdemetan + Olaparib (first compound 0.4 µM), 0.714; in the assay with Serdemetan + Olaparib (first compound 1.265 µM) it was 0.676; in the assay with Serdemetan + Olaparib (first compound 4 µM), 0.641.

For NCI-H1915, the relative viability in the assay with Selisistat + Pictilisib (first compound 0.4 µM) came out at 0.913; in the assay with Selisistat + Pictilisib (first compound 1.265 µM), 0.965; with Selisistat + Pictilisib (first compound 4 µM) it was 0.533; with Selisistat + Pictilisib (first compound 12.65 µM), 0.892; with Selisistat + Pictilisib (first compound 40 µM), 0.95; with Selisistat + Foretinib (first compound 0.4 µM) it was 1.11. In addition, the relative viability in the assay with Selisistat + Foretinib (first compound 1.265 µM) was 1.05; with Selisistat + Foretinib (first compound 4 µM) it was 1.14; in the assay with Selisistat + Foretinib (first compound 12.65 µM) it was 1.06; in the assay with Selisistat + Foretinib (first compound 40 µM), 1.18; with Serdemetan + Tozasertib (first compound 0.04 µM), 0.406; in the assay with Serdemetan + Tozasertib (first compound 0.1265 µM), 0.416. In addition, the relative viability turned out to be 0.38 with Serdemetan + Tozasertib (first compound 0.4 µM); 0.317 in the assay with Serdemetan + Tozasertib (first compound 1.265 µM); 0.396 with Serdemetan + Tozasertib (first compound 4 µM); 0.238 with Serdemetan + Olaparib (first compound 0.04 µM); 0.242 with Serdemetan + Olaparib (first compound 0.1265 µM); 0.223 in the assay with Serdemetan + Olaparib (first compound 0.4 µM). Further, the relative viability amounted to 0.208 in the assay with Serdemetan + Olaparib (first compound 1.265 µM) and 0.24 with Serdemetan + Olaparib (first compound 4 µM).

Take NCI-H2405: the relative viability amounted to 0.431 with Selisistat + Pictilisib (first compound 0.4 µM); 0.441 in the assay with Selisistat + Pictilisib (first compound 12.65 µM); 0.431 in the assay with Selisistat + Pictilisib (first compound 40 µM); 1.06 with Selisistat + Foretinib (first compound 0.4 µM); 1.09 in the assay with Selisistat + Foretinib (first compound 1.265 µM); 1.07 with Selisistat + Foretinib (first compound 4 µM). Also, the relative viability was 1.06 with Selisistat + Foretinib (first compound 12.65 µM); 1.02 with Selisistat + Foretinib (first compound 40 µM); 0.7 in the assay with Serdemetan + Tozasertib (first compound 0.04 µM); 0.704 with Serdemetan + Tozasertib (first compound 0.1265 µM); 0.734 with Serdemetan + Tozasertib (first compound 0.4 µM); 0.659 with Serdemetan + Tozasertib (first compound 1.265 µM). The relative viability came out at 0.662 in the assay with Serdemetan + Tozasertib (first compound 4 µM); 0.809 with Serdemetan + Olaparib (first compound 0.04 µM); 0.829 in the assay with Serdemetan + Olaparib (first compound 0.1265 µM); 0.86 with Serdemetan + Olaparib (first compound 0.4 µM); 0.795 with Serdemetan + Olaparib (first compound 1.265 µM); 0.779 with Serdemetan + Olaparib (first compound 4 µM).

For the cell line NCI-H322M, the relative viability was 0.562 with Selisistat + Pictilisib (first compound 0.4 µM); 0.525 with Selisistat + Pictilisib (first compound 1.265 µM); 0.549 with Selisistat + Pictilisib (first compound 12.65 µM); 0.604 with Selisistat + Pictilisib (first compound 40 µM); 0.953 with Selisistat + Foretinib (first compound 0.4 µM); 1.01 in the assay with Selisistat + Foretinib (first compound 1.265 µM). The relative viability in the assay with Selisistat + Foretinib (first compound 4 µM) stood at 0.884; with Selisistat + Foretinib (first compound 12.65 µM), 1.13; with Selisistat + Foretinib (first compound 40 µM) it was 1.11; with Serdemetan + Tozasertib (first compound 0.04 µM), 0.447; with Serdemetan + Tozasertib (first compound 0.1265 µM) it was 0.457; with Serdemetan + Tozasertib (first compound 0.4 µM), 0.484. In addition, the relative viability in the assay with Serdemetan + Tozasertib (first compound 1.265 µM) came to 0.35; with Serdemetan + Tozasertib (first compound 4 µM), 0.437; with Serdemetan + Olaparib (first compound 0.04 µM), 0.667; with Serdemetan + Olaparib (first compound 0.1265 µM) it was 0.757; with Serdemetan + Olaparib (first compound 0.4 µM), 0.729; in the assay with Serdemetan + Olaparib (first compound 1.265 µM), 0.469. The relative viability with Serdemetan + Olaparib (first compound 4 µM) stood at 0.655.
